The text below walks through data of EP0504254B1, “THE USE OF GIBBERELLINS FOR THE MANUFACTURE OF A MEDICAMENT FOR THE TREATMENT OF PROSTATITIS” (ODEN, Per, priority 1989, dated 1991).

Test [1] concerns male adult uncastrated rats. Kind of test: Dihydrotestosterone-induced hypertrophic growth of the prostatic gland in rats. It is filed as in vivo. The following applies: daily 50 mg dihydrotestosterone alone for three months. On the procedure:
The weight of the prostate was 814 mg, which was equivalent to about 0.34 % of the total body weight. When the rats were simultaneously given a daily dosis of 100 µg of gibberellins GA₂₀ and GA₃₀, an increase in prostate weight was not detected. The weight of the prostate was in this case 582 mg, which was equivalent to 0.20 % of the total body weight.

The test system of a further test is castrated rats. The settings on record: C.R. Séances Soc. Biol. Filiales 163 (1969); cited from earlier work.

Regarding `C[C@]12CCC(=O)C[C@@H]1CC[C@@H]1[C@@H]2CC[C@]2(C)[C@@H](O)CC[C@@H]12` [dihydrotestosterone], in test [1], the “weight of the prostate” value was 814 mg and the “weight of the prostate, equivalent % of the total body weight” value was “about 0.34%”.
Regarding `C=C1C[C@]23C[C@@]1(O)CC[C@H]2[C@@]12C=C[C@H](O)[C@@](C)(C(=O)O1)[C@H]2[C@@H]3C(=O)O` [gibberellic acid], in the test on castrated rats, the prostate weight entry is “restitution of prostate weight”.
